# Assays:
# Urease [1] = biological target: T1, Urease (Canavalia ensiformis, UniProt P07374); test: Inhibition of jack bean urease using urea as substrate assessed as ammonia production after 15 mins by indophenol method
# Urease [2] = biological target: T1, Urease; test: (§1) Competitive inhibition of jack bean urease using urea as substrate assessed as ammonia production after 15 mins by Lineweaver-Burk/Dixon plot analysis
# [3] = biological target: Urease (Canavalia ensiformis) (UniProt P07374); test: (§2) Non-competitive inhibition of jack bean urease using urea as substrate assessed as ammonia production after 15 mins by Lineweaver-Burk/Dixon plot analysis
# Urease [4] = biological target: T1, Urease; test: as §2
# [5] = biological target: Urease (Canavalia ensiformis) (UniProt P07374); test: (§3) Mixed-type inhibition of jack bean urease using urea as substrate assessed as ammonia production after 15 mins by Lineweaver-Burk/Dixon plot analysis
# Urease [6] = biological target: T1, Urease; test: as §3
# [7] = biological target: Urease (Canavalia ensiformis) (UniProt P07374); test: as §1
# Sequence of Urease (Canavalia ensiformis) (P07374 whole entry, looked up): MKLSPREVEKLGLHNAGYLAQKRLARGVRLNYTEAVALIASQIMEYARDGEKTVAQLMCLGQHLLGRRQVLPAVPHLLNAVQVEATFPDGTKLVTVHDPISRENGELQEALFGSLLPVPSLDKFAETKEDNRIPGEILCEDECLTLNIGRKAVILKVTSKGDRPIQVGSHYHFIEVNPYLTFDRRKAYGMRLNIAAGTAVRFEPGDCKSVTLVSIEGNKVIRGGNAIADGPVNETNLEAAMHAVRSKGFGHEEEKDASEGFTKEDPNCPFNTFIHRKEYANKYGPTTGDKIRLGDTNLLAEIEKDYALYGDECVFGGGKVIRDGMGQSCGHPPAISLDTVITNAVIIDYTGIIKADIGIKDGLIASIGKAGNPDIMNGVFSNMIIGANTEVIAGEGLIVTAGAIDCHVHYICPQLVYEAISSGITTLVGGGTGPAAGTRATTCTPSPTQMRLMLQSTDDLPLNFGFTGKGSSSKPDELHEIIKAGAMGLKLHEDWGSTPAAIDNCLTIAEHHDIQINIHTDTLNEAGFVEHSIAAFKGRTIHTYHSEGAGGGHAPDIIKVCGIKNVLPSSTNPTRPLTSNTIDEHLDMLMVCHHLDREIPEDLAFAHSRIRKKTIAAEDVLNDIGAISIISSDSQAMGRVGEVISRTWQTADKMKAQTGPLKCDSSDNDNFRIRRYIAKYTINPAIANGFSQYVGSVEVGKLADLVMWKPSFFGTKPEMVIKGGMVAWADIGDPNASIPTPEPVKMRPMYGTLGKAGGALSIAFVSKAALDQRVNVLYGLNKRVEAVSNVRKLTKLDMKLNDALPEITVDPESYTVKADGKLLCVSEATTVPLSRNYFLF
# T1 sequence (P07374 whole entry): as the sequence (P07374 whole entry, looked up) above
Structure (SMILES),IC50 (Urease [1]; read-out: IC50) [µM],further results
COc1cccc(NC(=S)Nc2cccc(Cl)c2)c1,24.5,
S=C(Nc1cccc(Cl)c1)Nc1c(Cl)cccc1Cl,41,
Cc1cccnc1NC(=S)Nc1ccccc1,25.3,
Fc1ccc(NC(=S)Nc2ccccc2)c(F)c1,24.3,
S=C(Nc1ccccc1)Nc1ccc(Br)cc1,34.3,
NC(N)=S [THIOUREA],,Ki (Urease [2]): 20 µM
Cc1ccc(NC(=S)Nc2cccc(Cl)c2)cc1,18.6,inhibition [3]: Dose-dependent effect; Ki (Urease [4]): 12.1 µM
S=C(Nc1cccc(Cl)c1)Nc1cccnc1Cl,,IC50 (Urease [1]): Not Active
COc1ccc(NC(=S)Nc2cccc(Cl)c2)cc1,29.6,
S=C(Nc1ccccc1)Nc1ccccn1,23.4,
Cc1cccnc1NC(=S)Nc1cccc(Cl)c1,15.9,
S=C(NCc1cccnc1)Nc1ccccc1,33.5,
COc1ccc(OC)c(NC(=S)Nc2ccccc2)c1,29.9,
Cc1cccc(C)c1NC(=S)Nc1cccc(Cl)c1,27.4,
S=C(Nc1ccccc1)Nc1ncc(Cl)cc1Cl,37,
S=C(Nc1cccc(Cl)c1)Nc1cccc(Cl)c1,20,inhibition [5]: Dose-dependent effect; Ki (Urease [6]): 18.1 µM
Fc1ccc(NC(=S)Nc2cccc(Cl)c2)cc1,19.1,Ki (Urease [6]): 16.8 µM
S=C(NCc1ccncc1)Nc1ccccc1,32.6,
Cc1ccc(Cl)cc1NC(=S)Nc1cccc(Cl)c1,20.1,inhibition [5]: Dose-dependent effect; Ki (Urease [6]): 18.5 µM
S=C(Nc1cccc(Cl)c1)Nc1cccc(Cl)c1Cl,27.1,

Structure (SMILES),IC50 (Urease [1]; read-out: IC50) [µM],further results
Cc1ccc(NC(=S)Nc2cccc(Cl)c2)c(C)c1,24.1,
Cc1ccccc1NC(=S)Nc1cccc(Cl)c1,34.4,
S=C(Nc1ccccc1)Nc1ccncc1,43.9,
S=C(Nc1ccc(Cl)cc1)Nc1cccc(Cl)c1,20.3,inhibition [5]: Dose-dependent effect; Ki (Urease [6]): 18.1 µM
Fc1ccc(NC(=S)Nc2cccc(Cl)c2)cc1F,16.3,
S=C(Nc1cccc(Cl)c1)Nc1ccc(Cl)cc1Cl,42.2,
S=C(Nc1ccccc1)Nc1cccnc1Cl,,IC50 (Urease [1]): Not Active
COc1ccccc1NC(=S)Nc1cccc(Cl)c1,20.1,
Cc1nc(NC(=S)Nc2ccccc2)ccc1Br,82.7,
S=C(Nc1ccccc1)Nc1cccc(Br)c1,18.3,inhibition [5]: Dose-dependent effect; Ki (Urease [6]): 15.6 µM
Fc1ccc(NC(S)=Nc2cccc(Cl)c2)cc1,,inhibition [5]: Dose-dependent effect
S=C(Nc1ccccc1)Nc1cccnc1,8.43,inhibition [7]: Dose-dependent effect; Ki (Urease [2]): 8.6 µM
S=C(Nc1cccc(Cl)c1)Nc1ccc(Cl)c(Cl)c1,11,inhibition [7]: Dose-dependent effect; Ki (Urease [2]): 11.7 µM
S=C(NCc1ccco1)Nc1ccccc1,32.4,
Cc1ccc(C)c(NC(=S)Nc2cccc(Cl)c2)c1,20.9,inhibition [5]: Dose-dependent effect; Ki (Urease [6]): 19.3 µM
S=C(Nc1cccnc1)Nc1cccc(Cl)c1,24.5,
S=C(Nc1cccc(Cl)c1)Nc1ccccc1Cl,22.2,
S=C(NCc1ccncc1)Nc1cccc(Cl)c1,22.7,
Cc1cccc(NC(=S)Nc2cccc(Cl)c2)c1,15,inhibition [5]: Dose-dependent effect; Ki (Urease [6]): 15.7 µM
S=C(NCc1cccnc1)Nc1cccc(Cl)c1,23,

# Reference: ChEMBL document CHEMBL3120147, “Synthesis and in vitro urease inhibitory activity of N,N'-disubstituted thioureas” (Eur J Med Chem, 2014)
